Measured values: patent publication US20230131501A1, “THERAPEUTIC USES OF INHIBITORS OF THE RNA-BINDING PROTEIN HuR” (University of Kansas, priority 2020, published 2023)
Where two headings read alike, the source gives them in different places. {Fluorescein} = fluorescein label

Experiments:
HCT116 β/w = test: Cytotoxicity assay (WST-8); format: cell-based; details: Homo sapiens, HCT-116, 96 h incubation
Method: (§1) Cells were seeded in 96-well culture plates (5,000 cells/well) and treated with titrated compounds in triplicate. After 96 h incubation, cell growth medium was removed and proliferation reagent WST-8 (Sigma) was added to each well and incubated at 37° C. for 1-3 h. Absorbance was then measured with a plate reader at 450 nm with correction at 650 nm. The results were expressed as the percentage of absorbance of treated wells versus that of vehicle control.

MIAPaCa-2 = test: Cytotoxicity assay (WST-8); format: cell-based; details: Homo sapiens, MIA PaCa-2, 96 h incubation
Method: as §1

MDA-MB-231 = test: Cytotoxicity assay (WST-8); format: cell-based; details: Homo sapiens, read-out: Cytotoxicity (IC50, μM) MDA-MB-231
Method: as §1, with “The cytotoxicity of the tested compounds in several cancer cell lines (HCT116 β/w, MIAPaCa-2, and MDA-MB-231) was determined by a cytotoxicity assay, where the results are provided in Table 1. Cells” for “Cells”, “control. IC50, the drug concentration causing 50% growth inhibition, was calculated via sigmoid curve fitting using GraphPad Prism 5.0. […]” for “control.”

[1] = target: T1, HuR protein interaction with the ARE site of Msi1 mRNA (HuR-Msi1^ARE) (Homo sapiens, UniProt Q15717); test: Fluorescence polarization (FP) assay, inhibition of HuR-Msi1 ARE interaction; format: binding; details: full-length human HuR, read-out: Ki via FP assay
T1 construct: full-length human HuR protein was produced by the KU COBRE-PSF Protein Purification Group; made in house
Source text: (§2) A fluorescence polarization (FP)-based binding assay was utilized to assess the inhibition of HuR protein interaction with the ARE site of Msi1 mRNA (“HuR-Msi1^ARE”) by compounds of interest. Briefly, full-length human HuR protein was produced by the KU COBRE-PSF Protein Purification Group and Bcl2, Msi1 and XIAP mRNA sequences (16 nt) were designed based on literature precedent^23,24,31,32. Fluorescein labeled RNAs were purchased from Dharmacon with the following sequences: Msi1 RNA: 5′-GCUUUUAUUUAUUUUG-3′-fluorescein; Bcl-2 RNA: 5′-AAAAGAUUUAUUUAUU-3′-fluorescein; XIAP RNA: 5′-UAGUUAUUUUUA UGUC-3′-fluorescein, and a 16-nt degenerative RNA with 3′-fluorescein label was used as a negative control.

[2] = system: protein levels of HuR targets in MDA-MB-231 cells; test: Western blot of HuR targets; format: cell-based
Method: (§3) As HuR promotes stability of its target mRNAs, it is expected that HuR-inhibitors will block HuR function and shorten the half-life (t1/2) of target mRNAs. mRNA stability was determined via quantitative real-time PCR (qRT-PCR) after co-treatment of compounds of the present technology and Actinomycin D (a transcription inhibitor). […] Because HuR also increases the translation of target mRNAs, the effect of compounds of the present technology was tested on protein levels of HuR targets by Western blot analysis.

[3] = system: protein levels of HuR targets in HCT-116 β/w cells; test: Western blot of HuR targets; format: cell-based
Method: as §3

[4] = system: HuR target mRNAs (Bcl-2, XIAP, Msi1, HuR) in HCT-116 β/w cells; test: mRNA stability by qRT-PCR after co-treatment with Actinomycin D; format: cell-based; parameters: dose or concentration left out as unconfirmed
Method: HuR target mRNA levels were measured by qRT-PCR.
as §3

[5] = system: PARP cleavage, LC3 conversion, and RIP3 activation; test: Western blot of cell death mechanisms; format: cell-based
Source text: FIGS. 8A-8C provide the results of Western blot analysis illustrating that KH-3 decreases the protein levels of HuR targets in HCT-116 β/w cells (FIG. 8A) and MDA-MB-231 cells (FIG. 8B) and is involved in cell death mechanisms by inducing PARP cleavage, LC3 conversion, and RIP3 activation (FIG. 8C), according to the working examples.
as §3

[6] = system: Musashi 2 (Msi2) mRNA in PC3 cells; test: mRNA level of HuR target after chemotherapy; format: cell-based
Source text: FIGS. 1A-1F provide the results of studies illustrating RNA-binding protein Hu antigen R (HuR) is involved in chemo/radiation-induced tumor response, according to the working examples. […] HuR knock-down by siRNA sensitized cancer cells to X-ray radiation, with an enhancement ratio (ER) of 1.5 versus the negative control (NC) siRNA (FIG. 1F).

[7] = system: docetaxel-resistant MDA-MB-231 cell line (231-TR); test: Cytotoxicity assay, docetaxel-resistant cells; format: cell-based; details: 231-TR vs MDA-MB-231
Method: (§4) To further mimic clinical conditions and assess overcoming acquired chemo-resistance via compounds of the present technology, docetaxel-resistant and doxorubicin-resistant MDA-MB-231 cells were generated by continuous exposure of cells to increasing concentrations of docetaxel (TXT) or doxorubicin (DXR). Cytotoxicity assays were then performed to assess the chemo-resistance of the produced cell lines as well as assess the sensitivity of such chemo-resistant cell lines to compounds of the present technology.
(§5) Cytotoxicity assays were then performed utilizing concentrations of KH-3 that were below the lethal threshold for the compound (a “sub-lethal concentration”) in combination with docetaxel or doxorubicin to determine whether compounds of the present technology may sensitize cancer cell lines (including chemo-resistance cancer cell lines) to chemotherapy. FIGS. 11A-11B illustrate that sub-lethal concentrations of KH-3 sensitizes both MDA-MB-231 cells and docetaxel-resistant 231-TR cells to docetaxel treatment (FIGS. 11A-11B), and FIGS. 11C-D illustrate that sub-lethal concentrations of KH-3 sensitizes both MDA-MB-231 cells and doxorubicin-resistant 231-DR cells to doxorubicin treatment (FIGS. 11C-11D).

[8] = system: doxorubicin-resistant MDA-MB-231 cell line (231-DR); test: Cytotoxicity assay, doxorubicin-resistant cells; format: cell-based; details: 231-DR vs MDA-MB-231
Method: as §4, §5

[9] = target: T2, full-length human HuR protein (Homo sapiens, UniProt Q15717); test: FP-based binding of fluorescein-labeled RNAs to HuR; details: 16 nt RNA oligo, FITC-RNA 2 nM; read-out: Kd of HuR binding with fluorescein-labeled target RNA
T2 construct: full-length human HuR protein was produced by the KU COBRE-PSF Protein Purification Group; made in house
Method: FIG. 3 provides the results of a fluorescence polarization (FP)-based binding assay, illustrating that full length HuR binds to FITC-Bcl-2, Msi1, and XIAP RNA but not to scrambled oligo-FITC, according to the working examples. The concentration of FITC-RNA used in the assay is 2 nM.
as §2

[10] = MDA-MB-231, 96 h incubation, WST-8

T2 sequence (Q15717 whole entry): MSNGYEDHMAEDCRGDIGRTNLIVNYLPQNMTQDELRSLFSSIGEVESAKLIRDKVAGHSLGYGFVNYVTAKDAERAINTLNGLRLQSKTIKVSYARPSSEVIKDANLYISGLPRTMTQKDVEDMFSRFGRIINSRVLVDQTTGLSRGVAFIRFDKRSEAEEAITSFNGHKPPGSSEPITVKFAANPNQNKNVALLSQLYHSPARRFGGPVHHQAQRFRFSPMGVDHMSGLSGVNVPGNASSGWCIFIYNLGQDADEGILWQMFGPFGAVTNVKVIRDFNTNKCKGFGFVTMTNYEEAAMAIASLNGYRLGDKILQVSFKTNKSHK
T1 sequence (Q15717 whole entry): as above

Compound	IC50 (HCT116 β/w)	IC50 (MIAPaCa-2)	IC50 (MDA-MB-231; [10])	Ki [1]	other results
O=C(O)/C=C/c1cc2cc(NS(=O)(=O)c3ccccc3)ccc2s1 [KH-1A, (E)-3-(5-(phenylsulfonamido)benzo[b]thiophen-2-yl)acrylic acid]	> 100 µM	> 100 µM	> 100 µM	5.82 µM	
CCOC(=O)/C=C/c1cc2cc(NS(=O)(=O)c3ccccc3)ccc2s1 [KH-1B, (E)-ethyl 3-(5-(phenylsulfonamido)benzo[b]thiophen-2-yl)acrylate]	35.6 µM	37.6 µM	41.8 µM	> 20 µM	
O=C(/C=C/c1cc2cc(NS(=O)(=O)c3ccccc3)ccc2s1)NO [KH-1]	0.86 µM	1.21 µM		9.2 µM	IC50 (MDA-MB-231; MDA-MB-231, 96 h): 0.98 µM
Cc1ccc(S(=O)(=O)Nc2ccc3sc(/C=C/C(=O)O)cc3c2)cc1 [KH-2A, (E)-3-(5-(4-methylphenylsulfonamido)benzo[b]thiophen-2-yl)acrylic acid]	> 100 µM	> 100 µM	> 100 µM	2.92 µM	
CCOC(=O)/C=C/c1cc2cc(NS(=O)(=O)c3ccc(C)cc3)ccc2s1 [KH-2B, (E)-ethyl 3-(5-(4-methylphenylsulfonamido)benzo[b]thiophen-2-yl)acrylate]	40.1 µM	39.5 µM	43 µM	> 20 µM	
Cc1ccc(S(=O)(=O)Nc2ccc3sc(/C=C/C(=O)NO)cc3c2)cc1 [KH-2]	1.42 µM	2.33 µM		5.55 µM	IC50 (MDA-MB-231; MDA-MB-231, 96 h): 1.46 µM
CC(C)(C)c1ccc(S(=O)(=O)Nc2ccc3sc(/C=C/C(=O)O)cc3c2)cc1 [KH-3A, (E)-3-(5-(4-(tert-butyl)phenylsulfonamido)benzo[b]thiophen-2-yl)acrylic acid]	> 100 µM	> 100 µM	> 100 µM	1.38 µM	
CCOC(=O)/C=C/c1cc2cc(NS(=O)(=O)c3ccc(C(C)(C)C)cc3)ccc2s1 [KH-3B, (E)-ethyl 3-(5-(4-(tert-butyl)phenylsulfonamido)benzo[b]thiophen-2-yl)acrylate]	68.2 µM	45.5 µM	45.6 µM	> 20 µM	protein levels of HuR targets [2]: not exhibited; protein levels of HuR targets [3]: not exhibited; stability of HuR target mRNAs (Bcl-2, XIAP, Msi1, HuR mRNA) [4]: not exhibited; cell death mechanisms (PARP cleavage, LC3 conversion, RIP3 activation) [5]: not exhibited
Cc1cc(C)c(S(=O)(=O)Nc2ccc3sc(/C=C/C(=O)O)cc3c2)c(C)c1 [KH-4A, (E)-3-(5-(2,4,6-trimethylphenylsulfonamido)benzo[b]thiophen-2-yl)acrylic acid]	> 100 µM	> 100 µM	> 100 µM	2.92 µM	
CCOC(=O)/C=C/c1cc2cc(NS(=O)(=O)c3c(C)cc(C)cc3C)ccc2s1 [KH-4B, (E)-ethyl 3-(5-(2,4,6-trimethylphenylsulfonamido)benzo[b]thiophen-2-yl)acrylate]	91.4 µM	30.4 µM	> 100 µM	> 20 µM	
Cc1cc(C)c(S(=O)(=O)Nc2ccc3sc(/C=C/C(=O)NO)cc3c2)c(C)c1 [KH-4]				1.41 µM	IC50 (MDA-MB-231; MDA-MB-231, 96 h): 1.04 µM
CC(=O)O[C@@]12CO[C@@H]1C[C@H](O)[C@@]1(C)C(=O)[C@H](O)C3=C(C)[C@@H](OC(=O)[C@H](O)[C@@H](NC(=O)OC(C)(C)C)c4ccccc4)C[C@@](O)([C@@H](OC(=O)c4ccccc4)[C@H]21)C3(C)C [docetaxel]					mRNA levels of HuR target Musashi 2 (Msi2) [6]: increased the mRNA levels; IC50 in 231-TR compared to parental cell line [7]: more than 8 fold
COc1cccc2c1C(=O)c1c(O)c3c(c(O)c1C2=O)C[C@@](O)(C(=O)CO)C[C@@H]3O[C@H]1C[C@H](N)[C@H](O)[C@H](C)O1 [doxorubicin]					IC50 in 231-DR compared to parental cell line [8]: about 10 fold
Bcl-2 RNA: Fluorescein labeled 16 nt RNA 5′-AAAAGAUUUAUUUAUU-3′-fluorescein (RNA, 3' {Fluorescein}, backbone not given here)					Kd [9]: 0.0063 µM
Msi1 RNA: Fluorescein labeled 16 nt RNA 5′-GCUUUUAUUUAUUUUG-3′-fluorescein (RNA, 3' {Fluorescein}, backbone not given here)					Kd [9]: 0.002 µM
XIAP RNA: Fluorescein labeled 16 nt RNA 5′-UAGUUAUUUUUA UGUC-3′-fluorescein (UAGUUAUUUUUAUGUC; RNA, 3' {Fluorescein}, backbone not given here)					Kd [9]: 0.0035 µM
